Results published in ChEMBL document CHEMBL1136889, “The application of the phosphoramidate ProTide approach confers micromolar potency against hepatitis C virus on inactive agent 4'-azidoinosine: kinase bypass on a dual base/sugar modified nucleoside” (Bioorg Med Chem Lett, 2009).
pEC50: −log10 of the molar value.

Legend:
[1] = Cytotoxicity against human HuH7 cells assessed as [3H]thymidine incorporation; format: cell-based, Huh-7
Hepatitis C virus = experiment: Antiviral activity against HCV 1b in human HuH7 cells assessed as renilla luciferase activity by replicon assay; format: functional, organism-based, Hepacivirus hominis; conditions: genotype 1b, Huh-7

Structure (SMILES)	pEC50 (Hepatitis C virus)	CC50 [1] [µM]
CCOC(=O)[C@H](C)NP(=O)(OC[C@@]1(N=[N+]=[N-])O[C@@H](n2cnc3c(=O)[nH]cnc32)[C@H](O)[C@@H]1O)Oc1cccc2ccccc12 (stereo partly drawn)	4.79	> 100
CCOC(=O)[C@H](C)NP(=O)(OC[C@@]1(N=[N+]=[N-])O[C@@H](n2cnc3c(=O)[nH]cnc32)[C@H](O)[C@@H]1O)Oc1ccccc1 (stereo partly drawn)	< 4.00	> 100
CC(C)OC(=O)[C@H](C)NP(=O)(OC[C@@]1(N=[N+]=[N-])O[C@@H](n2cnc3c(=O)[nH]cnc32)[C@H](O)[C@@H]1O)Oc1ccccc1 (stereo partly drawn)	< 4.00	> 100
C[C@H](NP(=O)(OC[C@@]1(N=[N+]=[N-])O[C@@H](n2cnc3c(=O)[nH]cnc32)[C@H](O)[C@@H]1O)Oc1cccc2ccccc12)C(=O)OCc1ccccc1 (stereo partly drawn)	5.37	> 100
[N-]=[N+]=N[C@]1(CO)O[C@@H](n2cnc3c(=O)[nH]cnc32)[C@H](O)[C@@H]1O	< 4.00	> 100

More lines, main results first:

pEC50 (Hepatitis C virus)	Structure (SMILES)	CC50 [1] [µM]
5.21	CC(C)OC(=O)[C@H](C)NP(=O)(OC[C@@]1(N=[N+]=[N-])O[C@@H](n2cnc3c(=O)[nH]cnc32)[C@H](O)[C@@H]1O)Oc1cccc2ccccc12 (stereo partly drawn)	> 100
< 4.00	C[C@H](NP(=O)(OC[C@@]1(N=[N+]=[N-])O[C@@H](n2cnc3c(=O)[nH]cnc32)[C@H](O)[C@@H]1O)Oc1ccccc1)C(=O)OC(C)(C)C (stereo partly drawn)	> 100
< 4.00	C[C@H](NP(=O)(OC[C@@]1(N=[N+]=[N-])O[C@@H](n2cnc3c(=O)[nH]cnc32)[C@H](O)[C@@H]1O)Oc1cccc2ccccc12)C(=O)OC(C)(C)C (stereo partly drawn)	> 100
< 4.00	C[C@H](NP(=O)(OC[C@@]1(N=[N+]=[N-])O[C@@H](n2cnc3c(=O)[nH]cnc32)[C@H](O)[C@@H]1O)Oc1ccccc1)C(=O)OCc1ccccc1 (stereo partly drawn)	> 100
